Measurements as given in US20240392305A1, “GENETICALLY MODIFIED BACTERIA AND USES THEREOF FOR THE INDUCIBLE EXPRESSION OF A NUCLEIC SEQUENCE OF INTEREST” (Institut National de Recherche Pour l'Agriculture, …, priority 2021, published 2024).

Assays:
elafin = test: Western blot detection of secreted elafin in culture supernatants; assay type: cell-based, human
Source text: FIG. 3. Production of elafin detected by Western blot in the supernatant of different S. thermophilus strains. (A) At OD600 0.2 and 0.5 for strain TIL1536 (ΔhtrA::aphA3 ΔsepM::spec), TIL1551 (blp::shp-rgg1358-Pster1357-elafin-P32 cm ΔhtrA::aphA3 ΔywdF::spec) and TIL1552 (blp::rgg1358-Pster1357-elafin-P32 cm ΔhtrA::aphA3 ΔywdF::spec). (B) At OD600 1 and 2 for strain TIL1536, TIL1551 and TIL1552. (C) At OD600 0.2, 0.5 and 1 for strain TIL1567 (blp::rgg1358-Pster1357-luxAB-aphA3 ΔhtrA::aphA3 ΔywdF::spec ΔpptAB::erm). Purified elafin was used as a positive control and strain TIL1536 as negative control (elafin non-producing strain). Induction of the production of elafin with the addition of synthetic SHP in the culture medium is mentioned with: +SHP.
For the preparation of the samples, derivatives of strain CNRZ1066 were grown in CDM at 42° C. When necessary, induction was performed with the addition of SHP peptide (EGIIVIVVG, SEQ ID NO: 24) at a final concentration of 1 μM for strain TIL1552 and 0.5 µM for strain TIL1567 in the growth medium at OD600 of 0.2. When the cultures reached the desired OD600, 10 ml were centrifuged at 3200 g for 10 min at room temperature. […]
For the Western blot experiments, 10 μl of the samples were diluted in Laemmli Buffer (4×) and heated to 95° C. for 5 minutes. […] Detection was finally recorded using a Chemidoc (Biorad).

SHP/Rgg1358 system = test: Maximum luciferase activity of strain TIL1566 with different synthetic SHPs; assay type: cell-based, S. thermophilus; conditions: strain TIL1566 in CDM, 37° C., synthetic peptide 1 μM; mean of three independent experiments
Procedure: For the assessment of the maximum luciferase activity reached with the addition of different SHPs in the culture media of strain TIL1566 (blp::rgg1358-Pster1357-luxAB-aphA3 ΔpptAB::erm), cells were grown overday at 37° C. in CDM. These cultures were diluted to a final OD600 of 0.05 in 1 ml of CDM. Synthetic SHP peptides were added in the culture medium at a final concentration of 1 μM. 250 μl of these diluted cultures were transferred to the wells of a covered sterile white microplate with a transparent bottom. The cultures' OD600 and luminescence values were monitored at 37° C. every 10 minutes in an Infinite M200 spectroluminometer, as previously described (Fontaine et al., J. Bacteriol. 192:1444-1454, 2010). The maximum of luminescence was recovered from each kinetic. The maximum activity was reported in Relative Luminescent Units divided by the OD600 (RLU/OD600) and measured as the mean of three independent experiments.
In order to assess their efficiency, we used their synthetic mature form to record the maximum luciferase activity of strain TIL1566 (blp::rgg1358-Pster1357-luxAB ΔpptAB::erm) in CDM and compared it to the one obtained with SHP1358. We chose the mature SHPs of strain CNRZ1066 similar to the mature SHP1358 (EGIIVIVVG, SEQ ID NO: 24): the SHP associated to Rgg STR_RS07375 (EGIIVILVG, SEQ ID NO: 25), the SHP associated to Rgg STR_RS09145 (EGIIVIGVG, SEQ ID NO: 26) and the SHP associated to Rgg STR_RS04530 (ESIIVIAVG, SEQ ID NO: 27). The most efficient peptide was ESIIVIAVG (SEQ ID NO: 27) with a maximum relative luciferase activity that reached 95% of the one obtained with SHP1358. The two other peptides were less efficient with percentage of 86% with EGIIVILVG (SEQ ID NO: 25) and only 27% with EGIIVIGVG (SEQ ID NO: 26).

Sequence | elafin level in induced culture versus uninduced culture (elafin; strain 1552, SHP 1 μM added at OD600 0.2, sampled at OD600 0.5) | production of elafin in the extracellular medium on addition of SHP (elafin; strain TIL1567 (ΔpptAB), SHP 0.5 μM added at OD600 0.2, detected at OD600 0.5 and 1) | maximum relative luciferase activity, percentage of the one obtained with SHP1358 (SHP/Rgg1358 system) [%]
EGIIVIVVG (listed as Streptococcus thermophilus) [SHP1358, mature small hydrophobic peptide of S. thermophilus LMD-9, inducer of Rgg1358] | much greater | restored | –
ESIIVIAVG (listed as Streptococcus thermophilus) | – | – | 95
EGIIVIGVG (listed as Streptococcus thermophilus) | – | – | 27
EGIIVILVG (listed as Streptococcus thermophilus) | – | – | 86
